In patent US12454525B2, “IL4I1 inhibitors and methods of use” (Merck Sharp & Dohme LLC, priority 2020, dated 2025) one finds EC50 data, which are given here for 39 compounds.

This assay addresses T1, recombinant IL4I1 (Homo sapiens, UniProt Q96RQ9).
T1 construct: purchased R&D Systems 5684-AO-020
T1 sequence (Q96RQ9 22-567): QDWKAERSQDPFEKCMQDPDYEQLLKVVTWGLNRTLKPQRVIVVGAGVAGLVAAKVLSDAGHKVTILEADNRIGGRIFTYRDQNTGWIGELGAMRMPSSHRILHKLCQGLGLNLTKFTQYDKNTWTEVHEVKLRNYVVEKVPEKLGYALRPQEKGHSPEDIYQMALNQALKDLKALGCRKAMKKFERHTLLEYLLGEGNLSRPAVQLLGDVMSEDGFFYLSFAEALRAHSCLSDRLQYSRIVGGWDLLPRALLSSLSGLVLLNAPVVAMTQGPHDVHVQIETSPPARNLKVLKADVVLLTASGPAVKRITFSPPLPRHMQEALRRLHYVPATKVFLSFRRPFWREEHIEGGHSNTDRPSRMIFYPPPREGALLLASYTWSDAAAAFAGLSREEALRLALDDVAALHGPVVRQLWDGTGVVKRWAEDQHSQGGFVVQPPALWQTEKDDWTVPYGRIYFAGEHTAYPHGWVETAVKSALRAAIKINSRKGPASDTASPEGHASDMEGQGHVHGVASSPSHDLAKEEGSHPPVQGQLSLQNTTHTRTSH
Put plainly: IL4I1 Enzymatic Assay (Amplex Red/HRP coupled H2O2 detection). Particulars: 240 min; four-hour pre-incubation with compound; 1 nM IL4I1, 1 mM each Phe/Tyr/Trp; ten-point titration; fluorescence readout; read-out: Potency EC50 (nM) (240 min). Type of assay: biochemical. The procedure, abridged: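 Recombinant IL4I1 at 1 nM final, pre-incubated 4 h with compound (0.1% DMSO) at ambient temperature in 50 mM Hepes pH 7.0, 0.005% Tween20; 1 mM each Phe/Tyr/Trp, 120 min, H2O2 read via Amplex Red/HRP fluorescence (544/590 nm). EC50 from ten-point four-parameter fit.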
A word on the EC50: it is the concentration giving half of the maximal effect. For `O=c1[nH]c2ccccc2n1CC1CCCOC1` (stereo not drawn) [Example 59, 1-[(oxan-3-yl)methyl]-1,3-dihydro-2H-benzimidazol-2-one], the EC50 is 2930 nM.

Turning to `O=c1[nH]c2ccccc2n1CCC1CCCO1` (stereo not drawn) [Example 60, 1-[2-(oxolan-2-yl)ethyl]-1,3-dihydro-2H-benzimidazol-2-one], the EC50 stood at 8660 nM.

Take `O=c1[nH]c2ccccc2n1C[C@@H]1C[C@H]1c1ccccc1` [Example 61, 1-{[(1R,2R)-2-phenylcyclopropyl]methyl}-1,3-dihydro-2H-benzimidazol-2-one]: the EC50 came out at 8 nM.

As to `O=c1[nH]c2ccccc2n1CCN1CCCCC1` [Example 62, 1-[2-(piperidin-1-yl)ethyl]-1,3-dihydro-2H-benzimidazol-2-one], the concentration for a half-maximal effect (EC50) was determined as 1240 nM.

In the case of `CC(C)(C)c1ccnc(Cn2c(=O)[nH]c3ccccc32)c1` [Example 63, 1-[(4-tert-butylpyridin-2-yl)methyl]-1,3-dihydro-2H-benzimidazol-2-one], the concentration for a half-maximal effect (EC50) is 4530 nM.

With `CC(=O)NCc1ccc(Cn2c(=O)[nH]c3ccc(Cl)cc32)cc1` [Example 64, N-(4-((6-chloro-2-oxo-2,3-dihydro-1H-benzo[d]imidazol-1-yl)methyl)benzyl)acetamide], the EC50 was 56 nM.

As for `CC(=O)NCc1ccc(Cn2c(=O)[nH]c3ccc(C)cc32)cc1` [Example 65, N-(4-((6-methyl-2-oxo-2,3-dihydro-1H-benzo[d]imidazol-1-yl)methyl)benzyl)acetamide], the EC50 worked out at 24 nM.

For the compound `CN(C)C(=O)Cc1ccc(Cn2c(=O)[nH]c3ccc(F)cc32)cc1` [Example 66, 2-(4-((6-fluoro-2-oxo-2,3-dihydro-1H-benzo[d]imidazol-1-yl)methyl)phenyl)-N,N-dimethylacetamide], the EC50 amounted to 16 nM.

With `CNC(=O)Cc1ccc(Cn2c(=O)[nH]c3ccc(F)cc32)cc1` [Example 67, 2-(4-((6-fluoro-2-oxo-2,3-dihydro-1H-benzo[d]imidazol-1-yl)methyl)phenyl)-N-methylacetamide], the half-maximal effective concentration (EC50) is 9 nM.

Take `O=c1[nH]c2c(F)cccc2n1Cc1ccccc1` [Example 68, 1-benzyl-4-fluoro-1,3-dihydro-2H-benzo[d]imidazol-2-one]: the EC50 stood at 1390 nM.

On to `O=c1[nH]c2cc(F)c(F)cc2n1Cc1ccccc1` [Example 69, 1-benzyl-5,6-difluoro-1,3-dihydro-2H-benzo[d]imidazol-2-one], for which the EC50 stood at 2270 nM.

Take `O=c1[nH]c2ccc(F)cc2n1Cc1ccc2c(c1)CCC2` [Example 70, 1-((2,3-dihydro-1H-inden-5-yl)methyl)-6-fluoro-1,3-dihydro-2H-benzo[d]imidazol-2-one]: the EC50 was 14 nM.

On to `CC(C)Oc1cccc(Cn2c(=O)[nH]c3ccccc32)c1` [Example 71, 1-(3-isopropoxybenzyl)-1,3-dihydro-2H-benzo[d]imidazol-2-one], for which the EC50 was found to be 45 nM.

On to `Cc1cc(C)cc(Cn2c(=O)[nH]c3ccccc32)c1` [Example 72, 1-[(3,5-dimethylphenyl)methyl]-1,3-dihydro-2H-benzimidazol-2-one], for which the EC50 was 6 nM.

With `CC(=O)N(C)Cc1ccc(Cn2c(=O)[nH]c3ccccc32)cc1` [Example 73, N-methyl-N-(4-((2-oxo-2,3-dihydro-1H-benzo[d]imidazol-1-yl)methyl)benzyl)acetamide], the EC50 came to 24 nM.

Consider `O=C1OCCN1Cc1ccc(Cn2c(=O)[nH]c3ccccc32)cc1` [Example 74, 3-(4-((2-oxo-2,3-dihydro-1H-benzo[d]imidazol-1-yl)methyl)benzyl) oxazolidin-2-one], for which the 50% effective concentration (EC50) stood at 7 nM.

On to `CN(Cc1ccc(Cn2c(=O)[nH]c3ccccc32)cc1)S(=O)(=O)C1CC1` [Example 75, N-methyl-N-(4-((2-oxo-2,3-dihydro-1H-benzo[d]imidazol-1-yl)methyl)benzyl)cyclopropanesulfonamide], for which the concentration giving a half-maximal response (EC50) was 16 nM.

With `CC(=O)NCc1ccc(Cn2c(=O)n(C(F)F)c3ccccc32)cc1` [Example 76, N-(4-((3-(difluoromethyl)-2-oxo-2,3-dihydro-1H-benzo[d]imidazol-1-yl)methyl)benzyl)acetamide], the EC50 came out at 9 nM.

In the case of `CS(=O)(=O)NCc1ccc(Cn2c(=O)n(C(F)F)c3ccccc32)cc1` [Example 77, N-(4-((3-(difluoromethyl)-2-oxo-2,3-dihydro-1H-benzo[d]imidazol-1-yl)methyl)benzyl)methanesulfonamide], the EC50 worked out at 6 nM.

On to `O=c1n(Cc2ccccc2)c2ccccc2n1C(F)F` [Example 78, 1-benzyl-3-(difluoromethyl)-1,3-dihydro-2H-benzo[d]imidazol-2-one], for which the EC50 came out at 443 nM.

For the compound `N#CC1(Cc2ncc(Cn3c(=O)[nH]c4ccccc43)cc2Cl)CCC1` [Example 79, 1-((3-chloro-5-((2-oxo-2,3-dihydro-1H-benzo[d]imidazol-1-yl)methyl)pyridin-2-yl)methyl)cyclobutane-1-carbonitrile], the EC50 turned out to be 113 nM.

With `CN1CCN(c2cccc(Cn3c(=O)[nH]c4ccccc43)c2)CC1` [Example 80, 1-(3-(4-methylpiperazin-1-yl)benzyl)-1,3-dihydro-2H-benzo[d]imidazol-2-one], the 50% effective concentration (EC50) is 27 nM.

For `O=c1[nH]c2ccccc2n1Cc1ccc(Cn2ccnn2)cc1` [Example 82, 1-(4-((1H-1,2,3-triazol-1-yl)methyl)benzyl)-1H-benzo[d]imidazol-2 (3H)-one], the EC50 amounted to 48 nM.

On to `C[C@H]1COC(=O)N1Cc1ccc(Cn2c(=O)[nH]c3ccccc32)cc1` [Example 83, (S)-4-methyl-3-(4-((2-oxo-2,3-dihydro-1H-benzo[d]imidazol-1-yl)methyl)benzyl) oxazolidin-2-one], for which the EC50 stood at 13 nM.

On to `COc1ccccc1Cn1c(=O)[nH]c2ccc(C)cc21` [Example 86, 1-(2-methoxybenzyl)-6-methyl-1,3-dihydro-2H-benzo[d]imidazol-2-one], for which the EC50 is 74 nM.

In the case of `CC(c1ccccc1)n1c(=O)[nH]c2ccccc21` (stereo not drawn) [Example 87, 1-(1-phenylethyl)-1,3-dihydro-2H-benzo[d]imidazol-2-one], the EC50 amounted to 8900 nM.

With `CC(C1CCCCC1)n1c(=O)[nH]c2ccccc21` (stereo not drawn) [Example 88, 1-(1-cyclohexylethyl)-1,3-dihydro-2H-benzo[d]imidazol-2-one], the EC50 amounted to 10000 nM.

`Cn1c(=O)n(Cc2cccc(OC(F)(F)F)c2)c2ccccc21` [Example 89, 1-methyl-3-(3-(trifluoromethoxy)benzyl)-1,3-dihydro-2H-benzo[d]imidazol-2-one]: the EC50 amounted to 29 nM.

Turning to `COc1cccc(Cn2c(=O)n(C)c3cc(Cl)ccc32)c1` [Example 90, 5-chloro-1-(3-methoxybenzyl)-3-methyl-1,3-dihydro-2H-benzo[d]imidazol-2-one], the EC50 was determined as 227 nM.

Consider `COc1ccccc1Cn1c(=O)[nH]c2cccc(C)c21` [Example 91, 1-(2-methoxybenzyl)-7-methyl-1,3-dihydro-2H-benzo[d]imidazol-2-one], for which the EC50 was 1340 nM.

On to `COc1ccccc1Cn1c(=O)[nH]c2c(C)cccc21` [Example 92, 1-(2-methoxybenzyl)-4-methyl-1,3-dihydro-2H-benzo[d]imidazol-2-one], for which the concentration for a half-maximal effect (EC50) came to 396 nM.

Take `O=c1[nH]c2c(N3CCCC3)cccc2n1Cc1ccccc1` [Example 93, 1-benzyl-4-(pyrrolidin-1-yl)-1,3-dihydro-2H-benzo[d]imidazol-2-one]: the EC50 was found to be 1340 nM.

In the case of `CC(=O)NCc1ccc(Cn2c(=O)[nH]c3ccc(F)cc32)cc1` [Example 94, N-(4-((6-fluoro-2-oxo-2,3-dihydro-1H-benzo[d]imidazol-1-yl)methyl)benzyl)acetamide], the EC50 came out at 9 nM.

With `CCCS(=O)(=O)NCc1ccc(Cn2c(=O)[nH]c3ccc(F)cc32)cc1` [Example 95, N-(4-((6-fluoro-2-oxo-2,3-dihydro-1H-benzo[d]imidazol-1-yl)methyl)benzyl)propane-1-sulfonamide], the EC50 turned out to be 6 nM.

For `COC1(C(=O)NCc2ccc(Cn3c(=O)[nH]c4ccccc43)cc2)CC1` [Example 96, 1-methoxy-N-(4-((2-oxo-2,3-dihydro-1H-benzo[d]imidazol-1-yl)methyl)benzyl)cyclopropane-1-carboxamide], the EC50 amounted to 21 nM.

Take `O=c1[nH]c2ccccc2n1CCCOc1cccc2cccnc12` [Example 97, 1-(3-(quinolin-8-yloxy)propyl)-1,3-dihydro-2H-benzo[d]imidazol-2-one]: the EC50 was 45 nM.

With `CS(=O)(=O)NC[C@H]1CC[C@H](Cn2c(=O)[nH]c3ccccc32)CC1` [Example 98, N-(((1r,4r)-4-((2-oxo-2,3-dihydro-1H-benzo[d]imidazol-1-yl)methyl)cyclohexyl)methyl)methanesulfonamide], the EC50 amounted to 1570 nM.

Take `CC(=O)N[C@H]1CC[C@H](Cn2c(=O)[nH]c3ccccc32)CC1` [Example 99, N-((1r,4r)-4-((2-oxo-2,3-dihydro-1H-benzo[d]imidazol-1-yl)methyl)cyclohexyl)acetamide]: the EC50 is 2690 nM.

With `O=c1[nH]c2cc(Cl)ccc2n1Cc1ccc(Cc2nnco2)cc1` [Example 100], the EC50 turned out to be 784 nM.
